PubChem BioAssay AID324 (DTP/NCI, 2004)
“And” between values parts separate entries of the source, which are not always exact repeats. Equal entries are not always repeated. Toxic doses and inconclusive results are not listed. Rule for the calls: active = survival T/C of 150% or more; inactive = T/C below 125% in these data.

Test system: CD2F1 mice, AMSA-resistant P388 leukemia ip, median survival T/C
Assay: NCI In Vivo Anticancer Drug Screen. Data for tumor model P388 Leukemia resistant to AMSA; NSC 249992 (intraperitoneal) in CD2F1 (CDF1) mice
Conditions: endpoint: median survival time, higher = longer survival
Procedure: The antitumor activity of compounds was measured in mice bearing transplantable tumors. Survival or tumor size were measured and the results are expressed as the measurement made in the treated group (T) divided by the measurement made in the vehicle treated control group (C). The tumor model used in this assay is P388 Leukemia resistant to AMSA; NSC 249992 (intraperitoneal) in CD2F1 (CDF1) mice

[1] = dose: 18.0 mg/kg/injection, schedule: Q04DX003 (ip), vehicle: Klucel (hydroxypropylcellulose) (HPC)

Measured: T/C

CCN(CC)CCNc1ccc(CO)c2sc3ccccc3c(=O)c12
inactive: dose: 10.36 mg/kg/injection, schedule: Q01DX005 (ip), vehicle: water 106 % of control | dose: 17.28 mg/kg/injection, schedule: Q01DX005 (ip), vehicle: water 117 % of control | dose: 28.8 mg/kg/injection, schedule: Q01DX005 (ip), vehicle: water 98 % of control | dose: 48.0 mg/kg/injection, schedule: Q01DX005 (ip), vehicle: water 97 % of control | dose: 80.0 mg/kg/injection, schedule: Q01DX005 (ip), vehicle: water 87 % of control

O=C1c2ccccc2C(=O)c2c(NCCNCCO)ccc(NCCNCCO)c21
inactive: dose: 13.0 mg/kg/injection, schedule: Q04DX003 (ip), vehicle: saline 103 % of control | dose: 21.6 mg/kg/injection, schedule: Q04DX003 (ip), vehicle: saline 103 % of control | dose: 36.0 mg/kg/injection, schedule: Q04DX003 (ip), vehicle: saline 103 % of control | dose: 60.0 mg/kg/injection, schedule: Q04DX003 (ip), vehicle: saline 108 % of control | dose: 100.0 mg/kg/injection, schedule: Q04DX003 (ip), vehicle: saline 113 % of control

CN(C)c1ccc(Nc2c3ccccc3nc3ccccc23)cc1
inactive: dose: 13.0 mg/kg/injection, schedule: Q04DX003 (ip), vehicle: saline with Tween-80 100 % of control | dose: 21.6 mg/kg/injection, schedule: Q04DX003 (ip), vehicle: saline with Tween-80 98 % of control | dose: 25.9 mg/kg/injection, schedule: Q04DX003 (ip), vehicle: saline 101 % of control | dose: 36.0 mg/kg/injection, schedule: Q04DX003 (ip), vehicle: saline with Tween-80 96 % of control | dose: 43.2 mg/kg/injection, schedule: Q04DX003 (ip), vehicle: saline 104 % of control | dose: 60.0 mg/kg/injection, schedule: Q04DX003 (ip), vehicle: saline with Tween-80 100 % of control | dose: 72.0 mg/kg/injection, schedule: Q04DX003 (ip), vehicle: saline 100 % of control | dose: 100.0 mg/kg/injection, schedule: Q04DX003 (ip), vehicle: saline with Tween-80 103 % of control

CO[C@H](C(=O)[C@@H](O)[C@@H](C)O)[C@@H]1Cc2cc3cc(OC4CC(OC5CC(O)C(O)C(C)O5)C(O)C(C)O4)c(C)c(O)c3c(O)c2C(=O)[C@H]1OC1CC(OC2CC(OC3CC(C)(O)C(O)C(C)O3)C(O)C(C)O2)C(O)C(C)O1 (stereo not given in full)
inactive: dose: 0.13 mg/kg/injection, schedule: Q01DX005 (ip), vehicle: saline 112 % of control | dose: 0.22 mg/kg/injection, schedule: Q01DX005 (ip), vehicle: saline 113 % of control | dose: 0.36 mg/kg/injection, schedule: Q01DX005 (ip), vehicle: saline 118 % of control

CCCCCCCC(=O)OCC(=O)[C@]1(O)Cc2c(O)c3c(c(O)c2[C@@H](OC2CC(N)C(O)C(C)O2)C1)C(=O)c1c(OC)cccc1C3=O (stereo not given in full)
inactive: dose: 13.3 mg/kg/injection, schedule: Q04DX003 (ip), vehicle: water 102 % of control

CO[C@H]1C[C@](C)(O)Cc2cc3c(c(O)c21)C(=O)c1c(O)cc2c(c1C3=O)O[C@@H]1O[C@@]2(C)[C@H](O)[C@@H](N(C)C)[C@@H]1O
inactive: dose: 6.48 mg/kg/injection, schedule: Q04DX003 (ip), vehicle: other 111 % of control | dose: 10.8 mg/kg/injection, schedule: Q04DX003 (ip), vehicle: other 114 % of control | dose: 18.0 mg/kg/injection, schedule: Q04DX003 (ip), vehicle: other 110 % of control | dose: 30.0 mg/kg/injection, schedule: Q04DX003 (ip), vehicle: other 102 % of control

N[C@@H](Cc1ccc(N(CCCl)CCCl)cc1)C(=O)O
inactive: dose: 15.0 mg/kg/injection, schedule: Q04DX002 (ip), vehicle: saline 120 % of control and 86 % of control
active: dose: 1.62 mg/kg/injection, schedule: Q04DX003 (ip), vehicle: saline 208 % of control | dose: 1.94 mg/kg/injection, schedule: Q04DX002 (ip), vehicle: saline 211 % of control and 212 % of control | dose: 2.7 mg/kg/injection, schedule: Q04DX003 (ip), vehicle: saline 211 % of control | dose: 3.24 mg/kg/injection, schedule: Q04DX002 (ip), vehicle: saline 259 % of control and 262 % of control | dose: 4.5 mg/kg/injection, schedule: Q04DX003 (ip), vehicle: saline 391 % of control | dose: 5.4 mg/kg/injection, schedule: Q04DX002 (ip), vehicle: saline 416 % of control | dose: 7.5 mg/kg/injection, schedule: Q04DX003 (ip), vehicle: saline 391 % of control | dose: 9.0 mg/kg/injection, schedule: Q04DX002 (ip), vehicle: saline 416 % of control | dose: 12.5 mg/kg/injection, schedule: Q04DX003 (ip), vehicle: saline 391 % of control

O=C(Nc1ccc(C2=NCCCN2)cc1)c1ccc(C(=O)Nc2ccc(C3=NCCCN3)cc2)cc1
active: dose: 10.8 mg/kg/injection, schedule: Q04DX003 (ip), vehicle: Klucel (hydroxypropylcellulose) (HPC) 167 % of control | [1] 185 % of control | dose: 30.0 mg/kg/injection, schedule: Q04DX003 (ip), vehicle: Klucel (hydroxypropylcellulose) (HPC) 278 % of control
inactive: dose: 50.0 mg/kg/injection, schedule: Q04DX003 (ip), vehicle: Klucel (hydroxypropylcellulose) (HPC) 95 % of control

CO[C@H]1Nc2c(ccc(C)c2O)C(=O)N2C=C(/C=C/C(N)=O)C[C@@H]12
inactive: dose: 0.08 mg/kg/injection, schedule: Q04DX003 (ip), vehicle: saline + alcohol 104 % of control | dose: 0.13 mg/kg/injection, schedule: Q04DX003 (ip), vehicle: saline + alcohol 123 % of control

CCC1(O)CC(OC2CC(N(C)C)C(OC3CC4OC5CC(=O)C(C)OC5OC4C(C)O3)C(C)O2)c2c(cc3c(c2O)C(=O)c2c(O)ccc(O)c2C3=O)C1C(=O)OC (stereo not given)
inactive: dose: 0.64 mg/kg/injection, schedule: Q04DX003 (ip), vehicle: water 108 % of control | dose: 0.86 mg/kg/injection, schedule: Q04DX003 (ip), vehicle: water 112 % of control | dose: 1.08 mg/kg/injection, schedule: Q04DX003 (ip), vehicle: water 107 % of control | dose: 1.44 mg/kg/injection, schedule: Q04DX003 (ip), vehicle: water 115 % of control | dose: 1.8 mg/kg/injection, schedule: Q04DX003 (ip), vehicle: water 117 % of control | dose: 2.4 mg/kg/injection, schedule: Q04DX003 (ip), vehicle: water 124 % of control | dose: 5.0 mg/kg/injection, schedule: Q04DX003 (ip), vehicle: water 113 % of control

O=NN(CCCl)C(=O)NCCCl
active: dose: 3.89 mg/kg/injection, schedule: Q04DX003 (ip), vehicle: saline + alcohol 164 % of control | dose: 6.48 mg/kg/injection, schedule: Q04DX003 (ip), vehicle: saline + alcohol 222 % of control | dose: 10.8 mg/kg/injection, schedule: Q04DX003 (ip), vehicle: saline + alcohol 267 % of control | dose: 18.0 mg/kg/injection, schedule: Q04DX003 (ip), vehicle: saline + alcohol 387 % of control
inactive: dose: 30.0 mg/kg/injection, schedule: Q04DX003 (ip), vehicle: saline + alcohol 115 % of control

CC(=O)N(C)c1ccc(Nc2cc(C)[nH]c3ccc4ncnc4c23)cc1
inactive: dose: 19.4 mg/kg/injection, schedule: Q04DX002 (ip), vehicle: saline 101 % of control | dose: 20.7 mg/kg/injection, schedule: Q04DX002 (ip), vehicle: saline 104 % of control | dose: 32.4 mg/kg/injection, schedule: Q04DX002 (ip), vehicle: saline 100 % of control | dose: 34.6 mg/kg/injection, schedule: Q04DX002 (ip), vehicle: saline 112 % of control | dose: 54.0 mg/kg/injection, schedule: Q04DX002 (ip), vehicle: saline 119 % of control | dose: 57.6 mg/kg/injection, schedule: Q04DX002 (ip), vehicle: saline 117 % of control | dose: 90.0 mg/kg/injection, schedule: Q04DX002 (ip), vehicle: saline 113 % of control | dose: 96.0 mg/kg/injection, schedule: Q04DX002 (ip), vehicle: saline 109 % of control

COc1cc([C@@H]2c3cc4c(cc3[C@@H](OC3OC5COC(C)OC5C(O)C3O)[C@H]3COC(=O)[C@H]23)OCO4)cc(OC)c1O (stereo not given in full)
active: dose: 28.8 mg/kg/injection, schedule: Q04DX003 (ip), vehicle: clinical formulation 167 % of control | dose: 28.8 mg/kg/injection, schedule: Q04DX003 (ip), vehicle: water 162 % of control
inactive: dose: 6.24 mg/kg/injection, schedule: Q04DX003 (ip), vehicle: water 124 % of control | dose: 17.3 mg/kg/injection, schedule: Q04DX003 (ip), vehicle: water 118 % of control | [1] 103 % of control | dose: 27.0 mg/kg/injection, schedule: Q04DX003 (ip), vehicle: Klucel (hydroxypropylcellulose) (HPC) 91 % of control | dose: 48.0 mg/kg/injection, schedule: Q04DX003 (ip), vehicle: water 108 % of control | dose: 60.0 mg/kg/injection, schedule: Q04DX003 (ip), vehicle: Klucel (hydroxypropylcellulose) (HPC) 87 % of control
